In patent US20210395239A1 (Hoffmann-La Roche Inc., priority 2018, published 2021):

biological target: T1, hTLR9 (Homo sapiens, UniProt Q9NR96); assay: HEK293-Blue-hTLR-9 cells assay (SEAP reporter, ODN2006 stimulation); type: cell-based; parameters: host or cells: HEK293 (HEK-Blue hTLR9); details: HEK293-Blue-hTLR9 cells, ODN2006, 20 hrs; read-out: HEK/hTLR9 IC50
T1 sequence (Q9NR96 26-1032): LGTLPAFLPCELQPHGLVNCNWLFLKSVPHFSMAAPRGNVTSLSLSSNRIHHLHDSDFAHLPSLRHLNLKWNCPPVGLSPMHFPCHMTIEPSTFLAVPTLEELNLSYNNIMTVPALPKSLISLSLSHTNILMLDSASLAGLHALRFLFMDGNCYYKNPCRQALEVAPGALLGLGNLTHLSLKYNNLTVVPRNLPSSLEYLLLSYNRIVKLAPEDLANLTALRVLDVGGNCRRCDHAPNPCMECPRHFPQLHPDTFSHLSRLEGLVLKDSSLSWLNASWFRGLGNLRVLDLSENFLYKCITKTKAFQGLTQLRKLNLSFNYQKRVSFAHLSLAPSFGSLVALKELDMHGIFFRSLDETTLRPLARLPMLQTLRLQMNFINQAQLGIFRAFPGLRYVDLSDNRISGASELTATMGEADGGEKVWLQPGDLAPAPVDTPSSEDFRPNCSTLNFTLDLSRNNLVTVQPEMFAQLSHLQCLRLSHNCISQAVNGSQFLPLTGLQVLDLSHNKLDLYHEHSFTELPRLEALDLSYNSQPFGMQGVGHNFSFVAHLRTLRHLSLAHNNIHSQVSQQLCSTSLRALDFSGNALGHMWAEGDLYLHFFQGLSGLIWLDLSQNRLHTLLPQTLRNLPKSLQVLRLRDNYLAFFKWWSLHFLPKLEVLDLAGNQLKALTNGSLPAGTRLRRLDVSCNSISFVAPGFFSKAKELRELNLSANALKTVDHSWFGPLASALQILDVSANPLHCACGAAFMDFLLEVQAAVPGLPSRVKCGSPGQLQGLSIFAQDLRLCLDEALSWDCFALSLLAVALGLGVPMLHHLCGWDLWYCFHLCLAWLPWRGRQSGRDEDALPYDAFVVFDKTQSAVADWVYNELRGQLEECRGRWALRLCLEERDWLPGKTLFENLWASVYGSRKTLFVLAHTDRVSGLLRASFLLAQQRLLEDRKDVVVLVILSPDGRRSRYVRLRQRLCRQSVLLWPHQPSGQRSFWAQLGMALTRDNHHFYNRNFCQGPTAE
Source text: HEK293-Blue-hTLR-9 Cells Assay:
A stable HEK293-Blue-hTLR-9 cell line was purchased from InvivoGen (Cat. #: hkb-htlr9, San Diego, Calif., USA). These cells were originally designed for studying the stimulation of human TLR9 by monitoring the activation of NF-κB. A SEAP (secreted embryonic alkaline phosphatase) reporter gene was placed under the control of the IFN-β minimal promoter fused to five NF-κB and AP-1-binding sites. The SEAP was induced by activating NF-κB and AP-1 via stimulating HEK-Blue hTLR9 cells with TLR9 ligands. Therefore the reporter expression was declined by TLR9 antagonist under the stimulation of a ligand, such as ODN2006 (Cat. #: tlrl-2006-1, Invivogen, San Diego, Calif., USA), for incubation of 20 hrs. The cell culture supernatant SEAP reporter activity was determined using QUANTI-Blue™ kit (Cat. #: rep-qb1, Invivogen, San Diego, Calif., USA) at a wavelength of 640 nm, a detection medium that turns purple or blue in the presence of alkaline phosphatase.
HEK293-Blue-hTLR9 cells were incubated at a density of 250,000˜450,000 cells/mL in a volume of 170 μL in a 96-well plate in Dulbecco's Modified Eagle's medium (DMEM) containing 4.5 g/L glucose, 50 U/mL penicillin, […], 2 mM L-glutamine, 10% (v/v) heat-inactivated fetal bovine serum with addition of 20 μL test compound in a serial dilution in the presence of final DMSO at 1% and 10 μL of 20 uM ODN2006 in above DMEM, perform incubation under 37° C. in a CO2 incubator for 20 hrs. Then 20 μL of the supernatant from each well was incubated with 180 μL Quanti-blue substrate solution at 37° C. for 2 h and the absorbance was read at 620-655 nm using a spectrophotometer. The signaling pathway that TLR9 activation leads to downstream NF-κB activation has been widely accepted, and therefore similar reporter assay was modified for evaluating TLR9 antagonist.

| Compound | IC50 |
| --- | --- |
| COC1CN(c2nccc(N3CCN(C[C@H]4CN(c5ccc(C#N)c6ncccc56)C[C@@H](C)O4)CC3)n2)CC1N (stereo in doubt) [Example 93, 5-[(2S,6R)-2-[[4-[2-[(3R,4S)-3-amino-4-methoxy-pyrrolidin-1-yl]pyrimidin-4-yl]piperazin-1-yl]methyl]-6-methyl-morpholin-4-yl]quinoline-8-carbonitrile] | 31 nM |
| C[C@@H]1CN(c2ccc(C#N)c3ncccc23)C[C@H](CN2CCC(c3cccc(N4CCNCC4)c3)C2)O1 (stereo partly drawn) [Example 1, 5-[(2R,6S)-2-methyl-6-[[3-(3-piperazin-1-ylphenyl)pyrrolidin-1-yl]methyl]morpholin-4-yl]quinoline-8-carbonitrile] | 136 nM |
| C[C@@H]1CN(c2ccc(C#N)c3ncccc23)C[C@H](CN2CCC(c3cccc(C4CCNCC4)c3)CC2)O1 [Example 2, 5-[(2R,6S)-2-methyl-6-[[4-[3-(4-piperidyl)phenyl]-1-piperidyl]methyl]morpholin-4-yl]quinoline-8-carbonitrile] | 74 nM |
| C[C@@H]1CN(c2ccc(C#N)c3ncccc23)C[C@H](CN2CC(c3ccc(N4CCNCC4)cc3)C2)O1 [Example 3, 5-[(2R,6S)-2-methyl-6-[[3-(4-piperazin-1-ylphenyl)azetidin-1-yl]methyl]morpholin-4-yl]quinoline-8-carbonitrile] | 52 nM |
| C[C@@H]1CN(c2ccc(C#N)c3ncccc23)C[C@H](CN2CC(c3cccc(N4CCNCC4)c3)C2)O1 [Example 4, 5-[(2R,6S)-2-methyl-6-[[3-(3-piperazin-1-ylphenyl)azetidin-1-yl]methyl]morpholin-4-yl]quinoline-8-carbonitrile] | 68 nM |
| C[C@@H]1CN(c2ccc(C#N)c3ncccc23)C[C@H](CN2CCN(c3ccc(CN)cc3)CC2)O1 [Example 5, 5-[(2S,6R)-2-[[4-[4-(aminomethyl)phenyl]piperazin-1-yl]methyl]-6-methyl-morpholin-4-yl]quinoline-8-carbonitrile] | 198 nM |
| C[C@@H]1CN(c2ccc(C#N)c3ncccc23)C[C@H](CN2CCN(c3cnc(N4CCNCC4)cn3)CC2)O1 [Example 6, 5-[(2R,6S)-2-methyl-6-[[4-(5-piperazin-1-ylpyrazin-2-yl)piperazin-1-yl]methyl]morpholin-4-yl]quinoline-8-carbonitrile] | 120 nM |
| COc1cc(N2CCN(C[C@H]3CN(c4ccc(C#N)c5ncccc45)C[C@@H](C)O3)CC2)nc(N2CCNCC2)n1 [Example 91, 5-[(2S,6R)-2-[[4-(6-methoxy-2-piperazin-1-yl-pyrimidin-4-yl)piperazin-1-yl]methyl]-6-methyl-morpholin-4-yl]quinoline-8-carbonitrile] | 102 nM |
| CO[C@@H]1CN(c2nccc(N3CCN(C[C@H]4CN(c5ccc(C#N)c6ncccc56)C[C@@H](C)O4)CC3)n2)C[C@@H]1N [Example 92, 5-[(2S,6R)-2-[[4-[2-[(3S,4R)-3-amino-4-methoxy-pyrrolidin-1-yl]pyrimidin-4-yl]piperazin-1-yl]methyl]-6-methyl-morpholin-4-yl]quinoline-8-carbonitrile] | 42 nM |
| C[C@@H]1CN(c2ccc(C#N)c3ncccc23)C[C@H](CN2CCN(c3ncc(F)c(N4CCNCC4)n3)CC2)O1 [Example 94, 5-[(2S,6R)-2-[[4-(5-fluoro-4-piperazin-1-yl-pyrimidin-2-yl)piperazin-1-yl]methyl]-6-methyl-morpholin-4-yl]quinoline-8-carbonitrile] | 51 nM |
| C[C@@H]1CN(c2ccc(C#N)c3ncccc23)C[C@H](CN2CCN(c3ccnc(N4C[C@@H](F)[C@@H](N)C4)n3)CC2)O1 [Example 95, 5-[(2S,6R)-2-[[4-[2-[(3S,4R)-3-amino-4-fluoro-pyrrolidin-1-yl]pyrimidin-4-yl]piperazin-1-yl]methyl]-6-methyl-morpholin-4-yl]quinoline-8-carbonitrile] | 31 nM |

Results, then the compound that gave them:

| IC50 | Compound |
| --- | --- |
| 109 nM | C[C@@H]1CN(c2ccc(C#N)c3ncccc23)C[C@H](CN2CCN(c3ccnc(N4C[C@@H](N)[C@H](F)C4)n3)CC2)O1 [Example 96, 5-[(2S,6R)-2-[[4-[2-[(3R,4R)-3-amino-4-fluoro-pyrrolidin-1-yl]pyrimidin-4-yl]piperazin-1-yl]methyl]-6-methyl-morpholin-4-yl]quinoline-8-carbonitrile] |
| 34 nM | CO[C@H]1CN(c2ccnc(N3CCN(C[C@H]4CN(c5ccc(C#N)c6ncccc56)C[C@@H](C)O4)CC3)n2)C[C@@H]1N [Example 97, 5-[(2S,6R)-2-[[4-[4-[(3S,4S)-3-amino-4-methoxy-pyrrolidin-1-yl]pyrimidin-2-yl]piperazin-1-yl]methyl]-6-methyl-morpholin-4-yl]quinoline-8-carbonitrile] |
| 49 nM | CO[C@@H]1CN(c2nccc(N3CCN(C[C@H]4CN(c5ccc(C#N)c6nccnc56)C[C@@H](C)O4)CC3)n2)C[C@H]1N [Example 98, 8-[(2S,6R)-2-[[4-[2-[(3R,4R)-3-amino-4-methoxy-pyrrolidin-1-yl]pyrimidin-4-yl]piperazin-1-yl]methyl]-6-methyl-morpholin-4-yl]quinoxaline-5-carbonitrile] |
| 63 nM | CO[C@H]1CN(c2nccc(N3CCN(C[C@H]4CN(c5ccc(C#N)c6nccnc56)C[C@@H](C)O4)CC3)n2)C[C@@H]1N [Example 99, 8-[(2S,6R)-2-[[4-[2-[(3S,4S)-3-amino-4-methoxy-pyrrolidin-1-yl]pyrimidin-4-yl]piperazin-1-yl]methyl]-6-methyl-morpholin-4-yl]quinoxaline-5-carbonitrile] |
| 31 nM | C[C@@H]1CN(c2ccc(C#N)c3ncccc23)C[C@H](CN2CCN(c3ccnc(N4C[C@@H](N)[C@@H](F)C4)n3)CC2)O1 [Example 101, 5-[(2S,6R)-2-[[4-[2-[(3R,4S)-3-amino-4-fluoro-pyrrolidin-1-yl]pyrimidin-4-yl]piperazin-1-yl]methyl]-6-methyl-morpholin-4-yl]quinoline-8-carbonitrile] |
| 80 nM | Cc1cnc(N2CCN(C[C@H]3CN(c4ccc(C#N)c5ncccc45)C[C@@H](C)O3)CC2)nc1N1CCNCC1 [Example 102, 5-[(2R,6S)-2-methyl-6-[[4-(5-methyl-4-piperazin-1-yl-pyrimidin-2-yl)piperazin-1-yl]methyl]morpholin-4-yl]quinoline-8-carbonitrile] |
| 100 nM | C[C@@H]1CN(c2ccc(C#N)c3ncccc23)C[C@H](CN2CCN(c3ccnc(N4C[C@H]5NCCO[C@@H]5C4)n3)CC2)O1 [Example 103, 5-[(2S,6R)-2-[[4-[2-[(4aR,7aR)-3,4,4a,5,7,7a-hexahydro-2H-pyrrolo[3,4-b][1,4]oxazin-6-yl]pyrimidin-4-yl]piperazin-1-yl]methyl]-6-methyl-morpholin-4-yl]quinoline-8-carbonitrile] |
| 70 nM | CO[C@H]1CN(c2cc(C)nc(N3CCN(C[C@H]4CN(c5ccc(C#N)c6nccnc56)C[C@@H](C)O4)CC3)n2)C[C@@H]1N [Example 104, 8-[(2S,6R)-2-[[4-[4-[(3S,4S)-3-amino-4-methoxy-pyrrolidin-1-yl]-6-methyl-pyrimidin-2-yl]piperazin-1-yl]methyl]-6-methyl-morpholin-4-yl]quinoxaline-5-carbonitrile] |
